{"source": "patent US8435980B2", "about": "(AbbVie Inc., priority 2009, dated 2013)", "target": "T1, Cdc7 (BEV coexpressed huCDC7/DBF4) (Homo sapiens, UniProt O00311)", "T1 construct": "made in house; host or cells: BEV (baculovirus expression vector) co-expression; insect cells are implied but no cell line is named", "T1 sequence (O00311 whole entry)": "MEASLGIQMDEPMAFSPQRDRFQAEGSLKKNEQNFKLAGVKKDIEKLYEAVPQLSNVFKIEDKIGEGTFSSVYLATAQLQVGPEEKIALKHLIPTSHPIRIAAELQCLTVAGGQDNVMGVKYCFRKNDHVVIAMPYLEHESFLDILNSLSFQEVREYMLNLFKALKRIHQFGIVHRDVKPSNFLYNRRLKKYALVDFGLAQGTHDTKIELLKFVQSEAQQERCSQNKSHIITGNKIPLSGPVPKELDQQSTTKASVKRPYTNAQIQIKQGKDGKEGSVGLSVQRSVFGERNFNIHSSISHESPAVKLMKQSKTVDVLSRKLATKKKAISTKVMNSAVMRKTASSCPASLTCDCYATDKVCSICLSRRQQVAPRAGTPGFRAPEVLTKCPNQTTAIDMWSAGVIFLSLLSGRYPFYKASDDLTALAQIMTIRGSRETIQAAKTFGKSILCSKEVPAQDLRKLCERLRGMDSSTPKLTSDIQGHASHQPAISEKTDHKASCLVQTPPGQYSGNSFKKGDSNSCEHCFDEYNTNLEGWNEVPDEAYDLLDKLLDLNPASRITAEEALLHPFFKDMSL", "T1 sequence (Q9UBU7 whole entry partner)": "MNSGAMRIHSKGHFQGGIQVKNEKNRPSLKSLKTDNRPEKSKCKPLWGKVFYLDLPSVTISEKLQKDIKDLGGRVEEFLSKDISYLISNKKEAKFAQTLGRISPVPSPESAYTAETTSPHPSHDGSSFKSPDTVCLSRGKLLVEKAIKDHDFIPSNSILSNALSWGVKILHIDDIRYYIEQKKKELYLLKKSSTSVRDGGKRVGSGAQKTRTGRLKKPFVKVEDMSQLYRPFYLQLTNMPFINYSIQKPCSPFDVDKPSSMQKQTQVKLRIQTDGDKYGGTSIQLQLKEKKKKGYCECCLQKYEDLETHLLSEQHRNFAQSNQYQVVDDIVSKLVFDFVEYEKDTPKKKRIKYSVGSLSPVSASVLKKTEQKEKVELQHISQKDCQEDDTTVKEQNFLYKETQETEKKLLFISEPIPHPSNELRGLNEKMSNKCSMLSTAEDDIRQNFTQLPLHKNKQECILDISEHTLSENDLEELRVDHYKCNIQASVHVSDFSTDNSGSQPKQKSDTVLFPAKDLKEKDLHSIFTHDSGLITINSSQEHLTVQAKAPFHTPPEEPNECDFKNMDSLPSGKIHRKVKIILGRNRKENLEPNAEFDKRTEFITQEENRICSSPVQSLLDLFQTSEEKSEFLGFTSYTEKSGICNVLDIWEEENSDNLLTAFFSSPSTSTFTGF", "assay": "Cdc7 enzyme inhibition assay ([33P]ATP, biotinylated peptide substrate, FlashPlate)", "type": "biochemical", "details": "Table 3; enzyme inhibition data (Ki)", "procedure": "Cdc7 (BEV coexpressed huCDC7/DBF4) is prepared internally. Cdc7 assays are conducted as follows with final concentrations as listed. […] Reactions are quenched after 1 hr by the addition of 90 μL stop buffer (50 mM EDTA, 2M NaCl). […] (Ki) for exemplary compounds."}
{"compound": "CN(C)CC(=O)N[C@H]1CC[C@H](Nc2cc(-c3c[nH]c4ncccc34)cc(Cl)n2)CC1", "note": "[Example 114, N-(trans-4-{[6-chloro-4-(1H-pyrrolo[2,3-b]pyridin-3-yl)pyridin-2-yl]amino}cyclohexyl)-N^2,N^2-dimethylglycinamide]", "values": [{"measurement": "Ki", "value": "< 10", "unit": "nM"}]}
{"compound": "O=C1C[C@@H](C(=O)N[C@H]2CC[C@H](Nc3cc(-c4c[nH]c5ncccc45)cc(Cl)n3)CC2)N1", "note": "[Example 115, (2S)—N-(trans-4-{[6-chloro-4-(1H-pyrrolo[2,3-b]pyridin-3-yl)pyridin-2-yl]-amino}cyclohexyl)-4-oxo azetidine-2-carboxamide]", "values": [{"measurement": "Ki", "value": "< 10", "unit": "nM"}]}
{"compound": "CN[C@@H](C)C(=O)N[C@H]1CC[C@H](Nc2cc(-c3c[nH]c4ncccc34)cc(Cl)n2)CC1", "note": "[Example 116, N-(trans-4-{[6-chloro-4-(1H-pyrrolo[2,3-b]pyridin-3-yl)pyridin-2-yl]amino}cyclohexyl)-N^2-methyl-L-alaninamide]", "values": [{"measurement": "Ki", "value": "< 10", "unit": "nM"}]}
{"compound": "O=C(C1CCN1)N1CCC(Nc2cc(-c3c[nH]c4ncccc34)cc(Cl)n2)CC1", "note": "(stereo not shown) [Example 117, Azetidin-2-yl(4-{[6-chloro-4-(1H-pyrrolo[2,3-b]pyridin-3-yl)pyridin-2-yl]amino}piperidin-1-yl)methanone]", "values": [{"measurement": "Ki", "value": "< 10", "unit": "nM"}]}
{"compound": "CN(C)CC(=O)NC1CCCC(Nc2cc(-c3c[nH]c4ncccc34)cc(Cl)n2)C1", "note": "(stereo not shown) [Example 118, N-(3-{[6-chloro-4-(1H-pyrrolo[2,3-b]pyridin-3-yl)pyridin-2-yl]amino}cyclohexyl)-N^2,N^2-dimethylglycinamide]", "values": [{"measurement": "Ki", "value": "< 10", "unit": "nM"}]}
{"compound": "CN1CCC[C@H]1C(=O)NC1CCCC(Nc2cc(-c3c[nH]c4ncccc34)cc(Cl)n2)C1", "note": "(stereo partly drawn) [Example 119, N-(3-{[6-chloro-4-(1H-pyrrolo[2,3-b]pyridin-3-yl)pyridin-2-yl]amino}cyclohexyl)-1-methyl-L-prolinamide]", "values": [{"measurement": "Ki", "value": "< 10", "unit": "nM"}]}
{"compound": "CN(C)CC(C)(C)CNc1cc(-c2c[nH]c3ncccc23)cc(Cl)n1", "note": "[Example 121, N′-[6-chloro-4-(1H-pyrrolo[2,3-b]pyridin-3-yl)pyridin-2-yl]-N,N,2,2-tetramethylpropane-1,3-diamine]", "values": [{"measurement": "Ki", "value": "< 10", "unit": "nM"}]}
{"compound": "CS(=O)(=O)Nc1cc(-c2c[nH]c3ncccc23)cc(Cl)n1", "note": "[Example 122, N-[6-chloro-4-(1H-pyrrolo[2,3-b]pyridin-3-yl)pyridin-2-yl]methanesulfonamide]", "values": [{"measurement": "Ki", "value": "< 10", "unit": "nM"}]}
{"compound": "O=S(=O)(Nc1cc(-c2c[nH]c3ncccc23)cc(Cl)n1)c1ccccc1", "note": "[Example 123, N-[6-chloro-4-(1H-pyrrolo[2,3-b]pyridin-3-yl)pyridin-2-yl]benzenesulfonamide]", "values": [{"measurement": "Ki", "value": "< 10", "unit": "nM"}]}
{"compound": "CC(C)(CNC(=O)C1CC1)CNc1cc(-c2c[nH]c3ncccc23)cc(Cl)n1", "note": "[Example 124, N-(3-{[6-chloro-4-(1H-pyrrolo[2,3-b]pyridin-3-yl)pyridin-2-yl]amino}-2,2-dimethylpropyl)cyclopropanecarboxamide]", "values": [{"measurement": "Ki", "value": "< 10", "unit": "nM"}]}
{"compound": "O=C(C1CC1)N1CCC(Nc2cc(-c3c[nH]c4ncccc34)cc(Cl)n2)CC1", "note": "[Example 126, (4-{[6-chloro-4-(1H-pyrrolo[2,3-b]pyridin-3-yl)pyridin-2-yl]amino}piperidin-1-yl)(cyclopropyl)methanone]", "values": [{"measurement": "Ki", "value": "< 10", "unit": "nM"}]}
{"compound": "C[C@@H](C(=O)N[C@H]1CC[C@H](Nc2cc(-c3c[nH]c4ncccc34)cc(Cl)n2)CC1)N(C)C", "note": "[Example 127, N-(trans-4-{[6-chloro-4-(1H-pyrrolo[2,3-b]pyridin-3-yl)pyridin-2-yl]amino}cyclohexyl)-N^2,N^2-dimethyl-L-alaninamide]", "values": [{"measurement": "Ki", "value": "< 10", "unit": "nM"}]}
{"compound": "Clc1cc(-c2c[nH]c3ncccc23)cc(NC2CCN(C3CCC3)CC2)n1", "note": "[Example 128, 6-chloro-N-(1-cyclobutylpiperidin-4-yl)-4-(1H-pyrrolo[2,3-b]pyridin-3-yl)pyridin-2-amine]", "values": [{"measurement": "Ki", "value": "< 10", "unit": "nM"}]}
{"compound": "O=C(NC1CCCC(Nc2cc(-c3c[nH]c4ncccc34)cc(Cl)n2)C1)C1CCCCN1", "note": "(stereo not shown) [Example 129, N-(3-{[6-chloro-4-(1H-pyrrolo[2,3-b]pyridin-3-yl)pyridin-2-yl]amino}cyclohexyl)piperidine-2-carboxamide]", "values": [{"measurement": "Ki", "value": "< 10", "unit": "nM"}]}
{"compound": "O=C(CN1CCCC1)NC1CCCC(Nc2cc(-c3c[nH]c4ncccc34)cc(Cl)n2)C1", "note": "(stereo not shown) [Example 130, N-(3-{[6-chloro-4-(1H-pyrrolo[2,3-b]pyridin-3-yl)pyridin-2-yl]amino}cyclohexyl)-2-(pyrrolidin-1-yl)acetamide]", "values": [{"measurement": "Ki", "value": "< 10", "unit": "nM"}]}
{"compound": "O=C(N[C@H]1CC[C@H](Nc2cc(-c3c[nH]c4ncccc34)cc(Cl)n2)CC1)C1CCC1", "note": "[Example 133, N-(trans-4-{[6-chloro-4-(1H-pyrrolo[2,3-b]pyridin-3-yl)pyridin-2-yl]amino}cyclohexyl)cyclobutanecarboxamide]", "values": [{"measurement": "Ki", "value": "< 10", "unit": "nM"}]}
{"compound": "NC1(C(=O)NC2CCCC(Nc3cc(-c4c[nH]c5ncccc45)cc(Cl)n3)C2)CCC1", "note": "(stereo not shown) [Example 135, 1-amino-N-(3-{[6-chloro-4-(1H-pyrrolo[2,3-b]pyridin-3-yl)pyridin-2-yl]amino}cyclohexyl)cyclobutanecarboxamide]", "values": [{"measurement": "Ki", "value": "< 10", "unit": "nM"}]}
{"compound": "O=C(CNC1CCCC1)N[C@H]1CC[C@H](Nc2cc(-c3c[nH]c4ncccc34)cc(Cl)n2)CC1", "note": "[Example 137, N-(trans-4-{[6-chloro-4-(1H-pyrrolo[2,3-b]pyridin-3-yl)pyridin-2-yl]amino}cyclohexyl)-N^2-cyclopentylglycinamide]", "values": [{"measurement": "Ki", "value": "< 10", "unit": "nM"}]}
{"compound": "CS(=O)(=O)N1CCCC(Nc2cc(-c3c[nH]c4ncccc34)cc(Cl)n2)C1", "note": "(stereo not shown) [Example 138, 6-chloro-N-[1-(methylsulfonyl)piperidin-3-yl]-4-(1H-pyrrolo[2,3-b]pyridin-3-yl)pyridin-2-amine]", "values": [{"measurement": "Ki", "value": "< 10", "unit": "nM"}]}
{"compound": "O=C1CC[C@@H](C(=O)NC2CCCC(Nc3cc(-c4c[nH]c5ncccc45)cc(Cl)n3)C2)N1", "note": "(stereo partly shown) [Example 139, N-(3-{[6-chloro-4-(1H-pyrrolo[2,3-b]pyridin-3-yl)pyridin-2-yl]amino}cyclohexyl)-5-oxoprolinamide]", "values": [{"measurement": "Ki", "value": "< 10", "unit": "nM"}]}
{"compound": "O=C(CN1CCOCC1)N[C@H]1CC[C@H](Nc2cc(-c3c[nH]c4ncccc34)cc(Cl)n2)CC1", "note": "[Example 141, N-(trans-4-{[6-chloro-4-(1H-pyrrolo[2,3-b]pyridin-3-yl)pyridin-2-yl]amino}cyclohexyl)-2-(morpholin-4-yl)acetamide]", "values": [{"measurement": "Ki", "value": "< 10", "unit": "nM"}]}
{"compound": "O=C(CN1CCN(c2ccccn2)CC1)N[C@H]1CC[C@H](Nc2cc(-c3c[nH]c4ncccc34)cc(Cl)n2)CC1", "note": "[Example 142, N-(trans-4-{[6-chloro-4-(1H-pyrrolo[2,3-b]pyridin-3-yl)pyridin-2-yl]amino}cyclohexyl)-2-[4-(pyridin-2-yl)piperazin-1-yl]acetamide]", "values": [{"measurement": "Ki", "value": "< 10", "unit": "nM"}]}
{"compound": "NC1CCC(CC2CCC(Nc3cc(-c4c[nH]c5ncccc45)cc(Cl)n3)CC2)CC1", "note": "(stereo not shown) [Example 143, N-{4-[(4-aminocyclohexyl)methyl]cyclohexyl}-6-chloro-4-(1H-pyrrolo[2,3-b]pyridin-3-yl)pyridin-2-amine]", "values": [{"measurement": "Ki", "value": "< 10", "unit": "nM"}]}
{"compound": "O=C1CC(C(=O)N[C@H]2CC[C@H](Nc3cc(-c4c[nH]c5ncccc45)cc(Cl)n3)CC2)CC(=O)N1", "note": "[Example 144, N-(trans-4-{[6-chloro-4-(1H-pyrrolo[2,3-b]pyridin-3-yl)pyridin-2-yl]amino}cyclohexyl)-2,6-dioxopiperidine-4-carboxamide]", "values": [{"measurement": "Ki", "value": "< 10", "unit": "nM"}]}
{"compound": "NCCS(=O)(=O)NC1CCCC(Nc2cc(-c3c[nH]c4ncccc34)cc(Cl)n2)C1", "note": "(stereo not shown) [Example 145, 2-amino-N-(3-{[6-chloro-4-(1H-pyrrolo[2,3-b]pyridin-3-yl)pyridin-2-yl]amino}cyclohexyl)ethanesulfonamide]", "values": [{"measurement": "Ki", "value": "< 10", "unit": "nM"}]}
{"compound": "CN1CCCC(CNc2cc(-c3c[nH]c4ncccc34)cc(Cl)n2)C1", "note": "(stereo not shown) [Example 146, 6-chloro-N-[(1-methylpiperidin-3-yl)methyl]-4-(1H-pyrrolo[2,3-b]pyridin-3-yl)pyridin-2-amine]", "values": [{"measurement": "Ki", "value": "< 10", "unit": "nM"}]}
{"compound": "CC(=O)N1CCCC(Nc2cc(-c3c[nH]c4ncccc34)cc(Cl)n2)C1", "note": "(stereo not shown) [Example 147, 1-(3-{[6-chloro-4-(1H-pyrrolo[2,3-b]pyridin-3-yl)pyridin-2-yl]amino}piperidin-1-yl)ethanone]", "values": [{"measurement": "Ki", "value": "< 10", "unit": "nM"}]}
{"compound": "CN1CCC(N[C@H]2CC[C@H](Nc3cc(-c4c[nH]c5ncccc45)cc(Cl)n3)CC2)CC1", "note": "[Example 148, trans-N-[6-chloro-4-(1H-pyrrolo[2,3-b]pyridin-3-yl)pyridin-2-yl]-N′-(1-methylpiperidin-4-yl)cyclohexane-1,4-diamine]", "values": [{"measurement": "Ki", "value": "< 10", "unit": "nM"}]}
{"compound": "COc1cnc2[nH]cc(-c3cc(Cl)nc(N[C@H]4CC[C@H](O)CC4)c3)c2c1", "note": "[Example 149, trans-4-{[6-chloro-4-(5-methoxy-1H-pyrrolo[2,3-b]pyridin-3-yl)pyridin-2-yl]amino}cyclohexanol]", "values": [{"measurement": "Ki", "value": "< 10", "unit": "nM"}]}
{"compound": "O=C(CN1CCOCC1)Nc1cc(-c2c[nH]c3ncccc23)cc(Cl)n1", "note": "[Example 150, N-[6-chloro-4-(1H-pyrrolo[2,3-b]pyridin-3-yl)pyridin-2-yl]-2-(morpholin-4-yl)acetamide]", "values": [{"measurement": "Ki", "value": "< 10", "unit": "nM"}]}
{"compound": "O=C(CN[C@H]1CC[C@H](O)CC1)N[C@H]1CC[C@H](Nc2cc(-c3c[nH]c4ncccc34)cc(Cl)n2)CC1", "note": "[Example 152, N-(trans-4-{[6-chloro-4-(1H-pyrrolo[2,3-b]pyridin-3-yl)pyridin-2-yl]amino}cyclohexyl)-N^2-(trans-4-hydroxycyclohexyl)glycinamide]", "values": [{"measurement": "Ki", "value": "< 10", "unit": "nM"}]}
{"compound": "O=C(CNCCN1CCOCC1)N[C@H]1CC[C@H](Nc2cc(-c3c[nH]c4ncccc34)cc(Cl)n2)CC1", "note": "[Example 153, N-(trans-4-{[6-chloro-4-(1H-pyrrolo[2,3-b]pyridin-3-yl)pyridin-2-yl]amino}cyclohexyl)-N^2-[2-(morpholin-4-yl)ethyl]glycinamide]", "values": [{"measurement": "Ki", "value": "< 10", "unit": "nM"}]}
{"compound": "CN(C)C1CCC(CC2CCC(Nc3cc(-c4c[nH]c5ncccc45)cc(Cl)n3)CC2)CC1", "note": "(stereo not shown) [Example 155, 6-chloro-N-(4-{[4-(dimethylamino)cyclohexyl]methyl}cyclohexyl)-4-(1H-pyrrolo[2,3-b]pyridin-3-yl)pyridin-2-amine]", "values": [{"measurement": "Ki", "value": "< 10", "unit": "nM"}]}
{"compound": "Clc1cc(-c2c[nH]c3ncccc23)cc(NC2CCC(CC3CCC(NC4CCCCC4)CC3)CC2)n1", "note": "(stereo not shown) [Example 156]", "values": [{"measurement": "Ki", "value": "< 10", "unit": "nM"}]}
